What all share (type): physicochemical
Data set [1] in a line: absorption spectra measured in solution (λmax, ε, shift Δλmax after thermal cyclization). Also on record: λmax: unit: nm (local absorption maximum, 350–470 nm range); Δλmax: unit: nm; negative = hypsochromic shift. The conditions noted are these: for absorption shift after cyclization Δλmax: after thermal cyclization, negative = hypsochromic; for Δλmax: shift after thermal cyclization; for λmax: solvent not given. An excerpt:
Preference is given to dyes in which the shift in the absorption maximum induced by thermal cyclization, Δλmax, is 25 nm or more, preferably ≧35 nm, in particular ≧45 nm. If a preferably hypsochromic shift occurs, then Δλmax is negative. For the purposes of the invention, the absorption maximum is the local maximum in the range from 350 to 470 nm; it is not necessarily the absolute maximum in the UV/VIS spectrum in the range from 190 to 800 nm.
The light-absorbent compounds preferably have a molar extinction coefficient ε of >20 000 l/mol cm, preferably >30 000 l/mol cm, particularly preferably >40 000 l/mol cm, very particularly preferably >50 000 l/mol cm, at the absorption maximum λmax.
The absorption spectra are, for example, measured in solution.

The nature of data set [2]: solubility in TFP (2,2,3,3-tetrafluoropropanol).
The nature of data set [3]: film formed by the dye (spin coating). The text has this:
Apart from the abovementioned optical properties, the writeable information layer comprising light-absorbent organic substances has to have a substantially amorphous morphology to keep the noise signal during writing or reading as small as possible. For this reason, it is particularly preferred that crystallization of the light-absorbent substances be prevented in the application of the substances by spin coating from a solution, by vapour deposition and/or sublimation during subsequent covering with metallic or dielectric layers under reduced pressure.
(§1) A 2% strength by weight solution of the dye in 2,2,3,3-tetrafluoropropanol was prepared at room temperature. This solution was applied by means of spin coating to a fused silica substrate. The resulting thickness of the dye film was about 150 nm. This specimen was heated from 50° C. to 133° C. in a stream of helium at a mean heating rate of 3 K/min and subsequently cooled to 81° C. at a mean cooling rate of 1.4 K/min. During the heating and cooling phases, transmission spectra of the specimen in the wavelength range from 200 nm to 1700 nm were recorded. The change in the optical properties resulting from the ring-closure reaction can be observed by looking at the transmission spectra at different temperatures.

The nature of data set [4]: index of refraction of spin-coated dye film over temperature cycle. The procedure: as §1
The absorption band in the region of 450 nm obviously disappears virtually completely and leads to a change in the absorption properties which can be utilized in the wavelength range from 400 to 500 nm for the optical storage and reproduction of data, for example when a laser beam having an appropriate pulse duration and pulse energy heats the dye layer to above 133° C. Furthermore, each absorption also produces a dispersion of the index of refraction over the wavelength. This leads, in particular on the flanks of the absorption bands, to indices of refraction which are lower (short wavelength flank) or higher (long wavelength flank) than 1.4-1.6, which represents the usual range for colourless organic materials. For example, the index of refraction of the dye at 405 nm is 1.17 at the beginning of the temperature cycle and that at 515 nm is […]. After the temperature cycle, when the absorption band has disappeared virtually completely, the decolourized dye has an index of refraction in the range from 1.4 to 1.6 in the visible spectrum. This change in the index of refraction can likewise be utilized for the optical storage and reproduction of data, for example when a laser beam having an appropriate pulse duration and pulse energy heats the dye layer to above 133° C. […]

A short description of data set [5]: cyclization temperature Tcyc by Differential Thermal Analysis (DTA). The note with it: for cyclization temperature Tcyc: determined using DTA; for Tcyc: table, DTA. The procedure: The cyclization temperature Tcyc is determined, for example, by means of Differential Thermal Analysis DTA. In the case of the preferred exothermic cyclization, it corresponds to the maximum of the rearrangement signal. The heating rate in the DTA measurements is, for example, 10° C. per minute. Under these conditions, the width at half height of the rearrangement signal is preferably less than 10° C., particularly preferably less than 7° C., very particularly preferably less than 5° C. For the purposes of the invention, the width at half height is the width of the signal at a height halfway between the base and the apex.
cyclization temperature Tcyc: 123° C. (determined using DTA, see description. This also applies to the other examples).

[6] abbreviates: molar extinction coefficient at λmax.

With `CCOC(=O)/C(C#N)=C/C=C1\NCCc2cc(OC)c(OC)cc21` [Example 1], the “absorption shift after cyclization Δλmax” value in data set [1] is −49 nm. Also, the “λmax (methanol)” value in data set [1] was 447 nm. Moreover, the ε in data set [1] (setting [6]) is given as 47 560 l/mol cm. Also, in data set [2], the solubility is given as above 2%. In addition, in data set [3], the film entry was “glass-like film”. Also, the index of refraction in data set [4] (after the temperature cycle (50 to 133° C.), visible spectrum, decolourized dye) was 1.4-1.6; in data set [4] (at 405 nm, beginning of the temperature cycle, about 150 nm film on fused silica), 1.17; in data set [4] (at 515 nm, beginning of the temperature cycle) it was 2.17. Besides, in data set [5], the “cyclization temperature Tcyc” value is 123 °C.

As for `CCc1ccc2c(NC(C)C)c(/C=C\C(=O)OC)c(=O)oc2c1` [Example 3], in data set [1], the “absorption shift after cyclization Δλmax” value was −20 nm and the “λmax (methanol)” value was 359 nm. Further, the ε in data set [1] (setting [6]) is on record as 20 700 l/mol cm. In data set [2], the solubility came to 1%. In addition, the film result in data set [3] is on record as “glass-like film”. Moreover, in data set [5], the “cyclization temperature Tcyc” value was 206 °C.

As to `CCCCNC1=C(/C=C(/C#N)C(=O)OCC)CCC1` [Example 4], in data set [1], the “absorption shift after cyclization Δλmax” value is listed as −72 nm and the “λmax (methanol)” value was 441 nm. In addition, the ε in data set [1] (setting [6]) is on record as 36 910 l/mol cm. Further, the solubility in data set [2] is given as above 2%. For the same compound, the film entry in data set [3] is reported as “glass-like film”. For the same compound, the “cyclization temperature Tcyc” value in data set [5] turned out to be 198 °C.

With `CCOC(=O)/C(C#N)=C/C=C1\NCCc2ccccc21` [Example 5], in data set [1] (table), the ε is on record as 53 320, the Δλmax is listed as −46 and the λmax amounted to 440. The Tcyc in data set [5] was 124 °C.

Consider `CCC1Cc2cc(OC)ccc2/C(=C/C=C(\C#N)C(=O)OCCOC)N1` (centres unmarked) [Example 8], for which, in data set [1] (table), the ε is given as 37 520, the Δλmax is listed as −50 and the λmax came to 444. Moreover, the Tcyc in data set [5] is 212 °C.

For the compound `CCOC(=O)/C(C#N)=C/C(C#N)=C1\NC(CC)Cc2cc(N(C)C)ccc21` (centres unmarked) [Example 9], in data set [1] (table), the ε was 63 160, the Δλmax is listed as −53 and the λmax is 452. The same compound had a Tcyc in data set [5] of 207 °C.

Take `Cc1ccc(N/C=C\c2c(C#N)c(=O)oc3ccccc23)cc1C` [Example 11]: in data set [1] (table), the ε is given as 30 820, the Δλmax result was “>|100|*” and the λmax is listed as 467. Further, in data set [5], the Tcyc is 157 °C.

As to `CCc1ccc(N/C=C(/Br)c2c(C#N)c(=O)[nH]c3ccc(CC)cc23)cc1` [Example 12], in data set [1] (table), the ε was 32 140, the Δλmax result is listed as “>|100|*” and the λmax is 463. This compound returned a Tcyc in data set [5] of 161 °C.

Turning to `CCCCN/C=C\c1c(C(=O)OC(C)C)c(=O)oc2cc(OC)c(OC)cc12` [Example 13], in data set [1] (table), the ε is listed as 24 580, the Δλmax is reported as −50 and the λmax came out at 422. The Tcyc in data set [5] was 81 °C.

As for `Cc1ccc(S(=O)(=O)OCc2c(/C=C\NC3CCCCC3)c3ccccc3oc2=O)cc1` [Example 14], in data set [1] (table), the ε is 21 750, the Δλmax was −15 and the λmax worked out at 368. In addition, the Tcyc in data set [5] is 175 °C.

On to `N#Cc1c(/C=C\Nc2ccccc2)c2ccc(-n3nccn3)cc2oc1=O` [Example 15], for which, in data set [1] (table), the ε is given as 38 540, the Δλmax result was “>|100|*” and the λmax was 468. Besides, the Tcyc in data set [5] was determined as 146 °C.

As for `COc1ccc(Nc2c(C=C(C#N)C#N)c(=O)oc3ccccc23)cc1OC` [Example 16], in data set [1] (table), the ε was 26 670, the Δλmax was −38 and the λmax is 386. The Tcyc in data set [5] came out at 167 °C.

`CCOC(=O)/C(C#N)=C/C1=C(Nc2ccc(OC)cc2)CCCC1` [Example 17]: in data set [1] (table), the ε was 33 200, the Δλmax was −65 and the λmax was 445. The Tcyc in data set [5] stood at 176 °C.

With `CCCCNC1=C(C=C(C#N)C#N)CCC1` [Example 18], in data set [1] (table), the ε is given as 37 840, the Δλmax is on record as −70 and the λmax worked out at 440. For the same compound, the Tcyc in data set [5] was determined as 174 °C.
